From PMC6463685, “WS-5 Extract of Curcuma longa, Chaenomeles sinensis, and Zingiber officinale Contains Anti-AChE Compounds and Improves β-Amyloid-Induced Memory Impairment in Mice” (Evidence-based Complementary and Alternative Medicine : eCAM, 2019)

Target: T1, acetylcholinesterase (AChE)
T1 construct: AChE used with commercial BioVision colorimetric AChE assay kit
Experiment: colorimetric AChE kit (choline oxidase/probe), […] nm
Assay type: biochemical
Details: 37°C, 20 min, AChE substrate 5 mM

Compound | IC50 (also printed as 10.42 μg/ml) [µM] | IC50 (also printed as 17.92 μg/ml) [µM]
O=C(O)c1ccc(O)c(O)c1 [Protocatechuic acid] | 67.6 | 
CCCCC/C=C/C(=O)CCc1ccc(O)c(OC)c1 [6-Shogaol] |  | 64.8
